# Source: patent US10780096B2, “Pyrrolobenzodiazepine-antibody conjugates” (priority 2014, dated 2020)
# Where two headings read alike, the source gives them in different places.
# What was measured:
# human CD25 = target: T1, human CD25 (Homo sapiens, UniProt P01589); test: Flow cytometry binding of ADCT-301-FITC on concanavalin-A activated CD25-positive human PBMCs; details: CD25-PE gate
# T1 construct: endogenous in cells
# T1 sequence (P01589 22-272): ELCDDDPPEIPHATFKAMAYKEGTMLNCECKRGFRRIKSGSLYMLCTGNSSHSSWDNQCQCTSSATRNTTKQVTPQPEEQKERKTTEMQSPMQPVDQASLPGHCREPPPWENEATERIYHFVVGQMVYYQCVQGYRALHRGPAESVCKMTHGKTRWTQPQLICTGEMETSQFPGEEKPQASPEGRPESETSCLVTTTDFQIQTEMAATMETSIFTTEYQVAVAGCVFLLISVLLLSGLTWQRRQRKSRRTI
# Protocol: FIG. 1. Affinity of ADCT-301 for human CD25 as determined by flow cytometry on concanavalin-A activated CD25-positive human PBMCs. ADCT-301-FITC binding was assessed in a CD25-PE (phycoerythrin) gate across the dilution series by measuring median fluorescent intensity (MFI) in channel FL1H. Isotype, non-targeting-ADC-FITC was used as the non-binding ADC control.
# Relative binding affinity of ADCT-301 was measured by flow cytometry on Concanavalin A-activated CD25-positive lymphocytes. Surface plasmon resonance (SPR, Biacore) was used to measure binding affinity and binding kinetics of HuMax®-TAC and ADCT-301 on recombinant sCD25 ectodomain attached to a gold surface.
# [1] = system: CD25-positive SuDHL-1 cells; test: Cytotoxicity on CD25-positive SuDHL-1 cells, cleavable vs non-cleavable linker; type: cell-based; details: direct treatment of CD25-positive SuDHL-1 cells
# [2] = system: CD25-negative Ramos cells; test: Bystander effect in co-culture of Karpas 299 and Ramos cells, flow cytometry; type: cell-based, human; details: 96 hour exposure, co-culture with CD25-positive Karpas 299, compared to Ramos cultured alone
# Protocol: FIG. 3. […] The histogram depicts the percentage of viable populations of cells as measured by flow cytometry.
# Readout was Karpas 299 and Ramos cell numbers and the viability of these cells both of which were determined by flow cytometry.
# Ramos cells are human B lymphocytes of Burkitt's lymphoma.
# [3] = system: CD25-negative Ramos cells; details: second culture 96 hrs
# Protocol: FIG. 5. […] Data is presented as the mean±SD.
# In these experiments, an first 48 hr culture of either (A) CD25-negative cells Ramos cells, or (B) CD25-positive Karpas 299, with ADCT-301 was performed. When this first culture was complete, the culture was centrifuged and 50 μl of the supernatant media transferred to 50 μl of a freshly prepared culture of either (A) CD25-negative cells Ramos cells, or (B) CD25-positive Karpas 299. This second culture was performed for 96 hrs, then cytotoxicity assessed by the MTS assay.
# Karpas 299 = test: MTS cell proliferation assay, in vitro cytotoxicity; type: cell-based; details: Karpas 299, anaplastic large cell lymphoma, CD25 expressing, 96 hours
# Protocol: (§1) FIG. 2. In vitro cytotoxicity of ADCT-301 on six lymphoma cell lines as measured by the MTS cell proliferation assay. Cells were incubated with increasing concentrations of ADCT-301 for 96 hours. Data is presented as the mean±SD
# (§2) Cell surface protein copy number of CD25 and CD30 was determined on various lymphoma cell lines by flow cytometric Qifikit® assay. Cytotoxicity of ADCT-301 on these cell lines was determined by cell proliferation assay (MTS) to determine whether there is a correlation between CD25 copy number and in vitro cytotoxic potency.
# L540 = test: as above; type: cell-based; details: L540, Hodgkin's lymphoma, CD25 expressing, 96 hours
# Protocol: as §1, §2
# HDLM-2 = test: as above; type: cell-based; details: HDLM-2, Hodgkin's lymphoma, CD25 expressing, 96 hours
# Protocol: as §1, §2
# SU-DHL-1 = test: as above; type: cell-based; details: SU-DHL-1, anaplastic large cell lymphoma, CD25 expressing, 96 hours
# Protocol: as §1, §2
# HuT 78 = test: as above; type: cell-based; details: HuT 78, cutaneous T cell lymphoma, CD25 negative, 96 hours
# Protocol: as §1, §2
# Daudi = test: as above; type: cell-based; details: Burkitt's lymphoma, CD25 negative, 96 hours
# Protocol: as §1, §2
# [4] = system: CD25-negative Burkitt lymphoma Ramos cells; test: Conditioned media transfer from SuDHL-1 culture to Ramos cells, MTS assay; type: cell-based, human; details: media conditioned by 48 hr culture of CD25-positive SuDHL-1 cells; second culture 96 hrs
# Protocol: FIG. 6. Comparison of CD25−ve bystander cytotoxicity observed with cleavable vs. non-cleavable linkers by in vitro conditioned media transfer. […] The error bars indicate % cell viability±SD of 3 independent repeats
# The effect of linker cleavablility was investigated in conditioned media transfer experiments. In these experiments, a first 48 hr culture CD25-positive SuDHL-1 cells was performed with either (1) of ADCT-301 (cleavable linker), or (2)NC-1 (composed of the recombinant human IgG1, HuMax®-TAC against human CD25 attached to a pyrrolobenzodiazepine PBD warhead with non-cleavable linker according to the alternative aspect of the disclosure).
substance,measurement,setting,value
"ADCT-301: recombinant human IgG1, HuMax-TAC against human CD25 attached to a pyrrolobenzodiazepine PBD warhead, cleavable linker; drug-antibody ratio 2.3±0.3; HuMax-TAC-E of WO2014/57119","EC50 (affinity for human CD25, median fluorescent intensity)",human CD25,≈ 0.03 μg/ml
same,Sensitivity of SuDHL-1 cells to treatment,[1],equally sensitive
same,Bystander killing of Ramos cells in co-culture,[2],specific bystander killing of Ramos cells
same,Cytotoxicity to Ramos cells of conditioned media,[3]; media conditioned by 48 hr culture of CD25+ve Karpas299 cells,potent cytotoxicity
same,Cytotoxicity to Ramos cells of conditioned media,[3]; media conditioned by 48 hr culture of CD25-ve Ramos cells,does not lead to any observable increase in cytoxicity
same,GI50,Karpas 299,0.0365 nM
same,Mean GI50,Karpas 299,5.47 ng/mL
same,GI50,L540,0.0216 nM
same,Mean GI50,L540,3.25 ng/mL
same,GI50,HDLM-2,0.0511 nM
same,Mean GI50,HDLM-2,7.67 ng/mL
same,GI50,SU-DHL-1,0.0165 nM
same,Mean GI50,SU-DHL-1,2.48 ng/mL
same,GI50,HuT 78,> 10 nM
same,Mean GI50,HuT 78,>>150 ng/ml
same,GI50,Daudi,> 10 nM
same,Mean GI50,Daudi,>>150 ng/ml
same,Cytotoxicity to Ramos cells of conditioned media,[4],shows cytotoxicity of CD25-negative Burkitt lymphoma Ramos cells
